In the first experiment the test system is immunoglobulin light chain protein WIL-FL T46L. Kind of experiment: Differential scanning fluorimetry (thermal shift) assay. Conditions: Table A; temperature shift [Tm]compound-[Tm]vehicle; recombinant WIL-FL T46L. The class given is binding. A general note: DSF heats the sample and reads unfolding from a dye or from intrinsic fluorescence.
In the case of `Cc1cc(N2CC[C@](C)(c3ccc(F)cc3)C2)cn2nc(C(=O)N3CC[C@@]4(CCN(c5cccc(C(=O)O)n5)C4)C3)nc12` [Compound 429], the DSF entry is recorded as “***** (>2.5° C.=*****)”.

For the compound `Cc1cc(N2CC[C@](C)(c3ccccc3)C2)cn2nc(C(=O)N3CCC4(CCN(c5cccc(N)n5)C4)C3)nc12` (stereo partly shown) [Compound 248], the DSF result is listed as “***** (>2.5° C.=*****)”.

As for `Cc1cc(N2CC[C@](C)(c3ccccc3)C2)cn2nc(C(=O)N3CC4CC3CO4)nc12` (stereo partly shown) [Compound 124], the DSF entry is given as “***** (>2.5° C.=*****)”. For the compound `Cc1cc(N2CC[C@](C)(c3ccccc3)C2)cn2nc(C(=O)N3CCC4(CCN(C5CCC(C(=O)O)CC5)C4)C3)nc12` (stereo partly shown) [Compound 377], the DSF result is given as “***** (>2.5° C.=*****)”. Turning to `Cc1cc(N2CC[C@](C)(c3ccccc3)C2)cn2nc(C(=O)NC3CCC(O)(c4cccc(C(=O)O)n4)CC3)nc12` (stereo partly shown) [Compound 269], the DSF result is recorded as “***** (>2.5° C.=*****)”. In the case of `Cc1cc(N2CC[C@](C)(c3ccccc3)C2)cn2nc(C(=O)N3CC45CN(c6cccc(C(=O)O)n6)CC4(C3)C5)nc12` (stereo partly shown) [Compound 281], the DSF entry was “***** (>2.5° C.=*****)”. Same read-out and setting: the entry for `CNC(=O)c1nc2c(C)cc(N3CCC(C)(c4nccs4)C3)cn2n1` (stereo not shown) [Compound 15, N,8-dimethyl-6-(3-methyl-3-(thiazol-2-yl)pyrrolidin-1-yl)-[1,2,4]triazolo[1,5-a]pyridine-2-carboxamide] is “***** (>2.5° C.=*****)”; for `Cc1cc(N2CC[C@](C)(c3ccccc3)C2)cn2nc(C(=O)NC34CC(O)(C3)C4)nc12` [Compound 132] it is “***** (>2.5° C.=*****)”.

In the case of `Cc1cc(N2CCC(NC(=O)c3nc4c(C)cc(N5CC[C@](C)(c6ccccc6)C5)cn4n3)CC2)cc(C(=O)O)n1` [Compound 251], the DSF result is “***** (>2.5° C.=*****)”. Same read-out and setting: the entry for `Cc1cc(N2CCC(C)(c3c(F)cccc3F)C2)cn2nc(C(=O)N3C[C@@H]4CN(c5cccc(C(=O)O)n5)C[C@@H]4C3)nc12` (stereo partly shown) [Compound 389] is “***** (>2.5° C.=*****)”; for `Cc1cc(N2CC[C@](C)(c3ccccc3)C2)cn2nc(C(=O)NC3CCNC3)nc12` (stereo partly shown) [Compound 101] it is “***** (>2.5° C.=*****)”; for `Cc1cccc([C@@]2(C)CCN(c3cc(C)c4nc(C(=O)N5C[C@@H]6CN(c7cccc(C(=O)O)n7)C[C@@H]6C5)nn4c3)C2)c1` [Compound 415] it is “***** (>2.5° C.=*****)”. The same measure, in the same setting: the value for `Cc1cc(N2CC[C@](C)(c3ccccc3)C2)cn2nc(C(=O)NC3CCN(CC(=O)O)C3)nc12` (stereo partly shown) [Compound 192] was “***** (>2.5° C.=*****)”. On to `Cc1cc(N2CC[C@](C)(c3ccccc3)C2)cn2nc(C(=O)N[C@@H]3CNC[C@@H]3O)nc12` [Compound 191], for which the DSF entry is on record as “***** (>2.5° C.=*****)”. With `Cc1cc(N2CC[C@](C)(c3ncco3)C2)cn2nc(C(=O)N3CC[C@@]4(CCN(c5cccc(C(=O)O)n5)C4)C3)nc12` [Compound 21, 6-((R)-7-(8-methyl-6-((S)-3-methyl-3-(oxazol-2-yl)pyrrolidin-1-yl)-[1,2,4]triazolo[1,5-a]pyridine-2-carbonyl)-2,7-diazaspiro[4.4]nonan-2-yl)picolinic acid], the DSF result is listed as “*** (>1-1.5° C.=***)”. Take `Cc1cc(N2CC[C@](C)(c3ccccc3)C2)cn2nc(C(=O)NC3CN(c4cccc(C(=O)O)n4)CCC3(C)C)nc12` (stereo partly shown) [Compound 274]: the DSF entry is reported as “***** (>2.5° C.=*****)”.

The experiment is the same for the next values; noted with them: Table B; temperature shift [Tm]compound-[Tm]vehicle; recombinant WIL-FL T46L.
`Cc1cc(N2CC[C@](C)(c3ccccc3)C2)cn2nc(C(=O)NC3CC4(CCC4Nc4cccc(C(=O)O)n4)C3)nc12` (stereo partly drawn) [Compound 662, 6-((6-(8-methyl-6-((R)-3-methyl-3-phenylpyrrolidin-1-yl)-[1,2,4]triazolo[1,5-a]pyridine-2-carboxamido)spiro[3.3]heptan-1-yl)amino)picolinic acid]: the DSF result was “***** (>2.5° C.=*****)”. As for `Cc1cc(N2CC[C@](C)(c3cccc(F)c3)C2)cn2nc(C(=O)N3CC[C@@]4(CCN(c5cccc(C(=O)O)n5)C4)C3)nc12` [Compound 755], the DSF result is listed as “***** (>2.5° C.=*****)”.

Regarding `COC(C)(CS(=O)(=O)NCC12COC(c3nc4c(C)cc(N5CC[C@](C)(c6ccccc6)C5)cn4n3)(C1)C2c1n[nH]c(C)n1)C(=O)O` (stereo partly shown) [Compound 585], the DSF result is “***** (>2.5° C.=*****)”. As for `Cc1cc(N2CC[C@](C)(c3ccccc3)C2)cn2nc(C34CC(N)(CO3)C4c3nc(C)n(C)n3)nc12` (stereo partly shown) [Compound 539], the DSF result is on record as “***** (>2.5° C.=*****)”. Same read-out and setting: the entry for `CC(=O)N[C@@]12CO[C@@](c3nc4c(C)cc(N5CC[C@](C)(c6ccccc6)C5)cn4n3)(C1)[C@@H]2CO` [Compound 544, N-((1S,4S,5S)-5-(hydroxymethyl)-1-(8-methyl-6-((R)-3-methyl-3-phenylpyrrolidin-1-yl)-[1,2,4]triazolo[1,5-a]pyridin-2-yl)-2-oxabicyclo[2.1.1]hexan-4-yl)acetamide] is “***** (>2.5° C.=*****)”. Consider `Cc1cc(N2CC[C@](C)(c3ccccc3)C2)cn2nc(C34CC(Cn5ncnc5C)(CO3)C4)nc12` [Compound 449], for which the DSF entry is given as “***** (>2.5° C.=*****)”.

As to `Cc1cc(N2CC[C@](C)(c3ccccc3)C2)cn2nc(C(=O)NC3CC4(C3)CN(C(=O)C35CCC(C(=O)O)(CC3)OC5)C4)nc12` [Compound 678, 4-[6-[[8-methyl-6-[(3R)-3-methyl-3-phenyl-pyrrolidin-1-yl]-[1,2,4]triazolo[1,5-a]pyridine-2-carbonyl]amino]-2-azaspiro[3.3]heptane-2-carbonyl]-2-oxabicyclo[2.2.2]octane-1-carboxylic acid], the DSF result is on record as “***** (>2.5° C.=*****)”. As for `Cc1cc(N2CC[C@](C)(c3ccccc3)C2)cn2nc(C(=O)N3CC[C@@]4(CCN(C5CC(C)(C(=O)O)C5)C4)C3)nc12` (stereo partly shown) [Compound 725], the DSF entry is “***** (>2.5° C.=*****)”. For the compound `Cc1cc(N2CC[C@](C)(c3ccc(Cl)c(F)c3)C2)cn2nc(C(=O)N3CC[C@@]4(CCN(c5cccc(C(=O)O)n5)C4)C3)nc12` [Compound 751], the DSF result is “***** (>2.5° C.=*****)”. Consider `Cc1cc(N2CC[C@](C)(c3ccccc3)C2)cn2nc(C34CC(CO3)C4CN3CC4C(C3)C4C(=O)O)nc12` (stereo partly drawn) [Compound 506, 3-((1-(8-methyl-6-((R)-3-methyl-3-phenylpyrrolidin-1-yl)-[1,2,4]triazolo[1,5-a]pyridin-2-yl)-2-oxabicyclo[2.1.1]hexan-5-yl)methyl)-3-azabicyclo[3.1.0]hexane-6-carboxylic acid], for which the DSF entry is “***** (>2.5° C.=*****)”. In the case of `Cc1cc(N2CC[C@](C)(c3ccccc3)C2)cn2nc(C(=O)N[C@@H]3CN(c4cccc(C(=O)O)n4)CC3(C)C)nc12` [Compound 683], the DSF result is listed as “***** (>2.5° C.=*****)”. Take `Cc1cc(N2CC[C@](C)(c3ccccc3)C2)cn2nc([C@@]34C[C@@H](CO3)[C@H]4N3CC4(CC4)NC3=O)nc12` [Compound 524]: the DSF result was “***** (>2.5° C.=*****)”. For the compound `Cc1cc(N2CC[C@](C)(c3ccccc3)C2)cn2nc(C34CC(CO3)C4N3CC4(CCOCC4)NC3=O)nc12` (stereo partly shown) [Compound 522], the DSF entry is “***** (>2.5° C.=*****)”.

For the compound `Cc1cc(N2CC[C@](C)(c3ccccc3)C2)cn2nc(C(=O)N3CCC4(CCN4c4ccnc(C(=O)O)c4)C3)nc12` (stereo partly shown) [Compound 621], the DSF result is on record as “***** (>2.5° C.=*****)”. Regarding `Cc1cc(N2CC[C@](C)(c3ccccc3)C2)cn2nc(C(=O)NC3(C)CCCN(c4cccc(C(=O)O)n4)C3)nc12` (stereo partly shown) [Compound 617], the DSF result is reported as “***** (>2.5° C.=*****)”.

The values above are taken from US20260285857A1, “BICYCLIC AND HETEROCYCLIC AMIDE COMPOUNDS” (priority 2024, published 2026).
